Test [1] deals with YAP knockdown podocytes. The experiment in a line: Rescue of YAP knockdown podocyte morphology (phalloidin/paxillin staining). Format: cell-based, mouse.
Experimental: Podocytes were cultured as previously described (2, 14, 35). Briefly, conditionally immortalized murine podocytes were cultured in Dulbecco's modified Eagle's medium (DMEM; Life Technologies) supplemented with 10% heat-inactivated fetal bovine serum (Life Technologies) and 100 U/mL penicillin-streptomycin (Life Technologies) on type I collagen (Corning, Corning, NY) coated dishes or flasks. Undifferentiated podocytes were maintained at 33° C. in the presence of 10 U/mL mouse γ-interferon (Cell Sciences, Canton, MA) to drive T-antigen expression. To induce differentiation, podocytes were thermo-shifted to a 37° C. incubator and switched to medium lacking γ-interferon.
The pLKO.1 plasmids (YAP shRNA or control shRNA) along with the helper plasmids psPAX^2 and pMD2.G were transfected into HEK293T cells at 70% confluence using FuGENE 6 (Promega). Medium was replaced 16-18 h after transfection. 36 and 60 h after transfection, virus-containing supernatants were harvested and centrifuged at 3,000 rpm for 5 min. Viral particles were then passed through a 0.45-μm filter. The supernatants were subsequently used for the infection of target cells in the presence of 4 μg/ml Polybrene (Sigma). […]
Changes in the organization of the actin cytoskeleton were assessed by phalloidin staining and paxillin staining as described previously. […]
In test [2] the target is T1, KCa3.1 (Mus musculus, UniProt O89109).
T1 construct: endogenous in cells; host or cells: YAP shRNA (YAP KD) conditionally immortalized mouse podocytes
The experiment in a line: Whole-cell patch clamp electrophysiology in YAP silenced podocytes. Format: cell-based. As for the experimental part: (§1) Cells plated on coverslips are transferred to a submersion recording chamber and continuously perfused (2-4 ml/min) with RPMI cell culture medium containing (in mM): NaCl 124, KCl 2.5, NaH2PO4 1.2, NaHCO3 24, HEPES 5, glucose 12.5, MgSO4 2, and CaCl2 2, pH 7.4. The solution is continuously bubbled with 95% O2/5% CO2, and recordings are obtained at 25±1° C. Cells are recorded under infrared differential contrast optics (BX51; Olympus). After control readings are measured, the solution is then switched to the solutions containing the molecules. […] Recording pipettes (3-5 MΩ), pulled from borosilicate glass, are filled with internal solution containing (in mM): K gluconate 120, HEPES 10, KCl 20, MgCl2 1, MgATP 2, Na2GTP 0.5, Na-phosphocreatine 10, CaCl2 1.71 and EGTA 2, pH 7.25. Data are acquired with a Multiclamp 700 A amplifier (Molecular Devices), subsequently filtered at 10 kHz and digitized at 10 kHz, and analysis is performed with pClamp 11 software (Molecular Devices). Whole-cell data will be collected. All data will be recorded at room temperature.
(In general: Patch clamp records ionic current or voltage across a cell membrane.)

For test [3], the target named is T2, KCa3.1 (Homo sapiens, UniProt O15554).
T2 construct: expressed in transfected cells; host or cells: immortalized mouse podocytes (KCNN4 OE)
Nature of the test: Whole-cell patch clamp electrophysiology in KCNN4 overexpression podocytes. Format: cell-based, mouse. As to conditions: KCNN4 OE podocytes. As for the experimental part: as §1

The subject of test [4] is YAP KD podocytes. The experiment in a line: Intracellular calcium dynamics in YAP KD podocytes (Fluo-3, ATP stimulation). Format: cell-based, mouse. Particulars: for CaD50 / time to peak of calcium uptake: YAP silenced podocytes, upon ATP stimulation. The protocol: Intracellular calcium dynamics were measured in wild type and YAP KD podocytes loaded with Fluo-3, stimulated with ATP ([…]) and imaged for 3 minutes at 1 frame per 0.5 seconds on a high-speed Zeiss 880 laser scanning confocal microscope with automated CO2incubator stage.
Isolated cells were superfused with Tyrode solution containing (mm): NaCl 140, KCl
5, Hepes 5, NaH2PO4 1, MgCl2 1, CaCl2 1.8, glucose 10 (pH 7.4). To allow for confocal imaging of [Ca^2+]i, cells were loaded for 30 min with 5 μm fluo-3 AM (Molecular Probes, Eugene, OR, USA), then washed and stored for 20 min in Tyrode solution to enable dye de-esterification. Confocal imaging in line-scan mode was performed on a Zeiss 510 microscope. Cells were scanned with light at 488 nm from an argon-ion laser, and fluorescence above 505 nm was recorded. To generate repeated Ca^2+ sparks at a limited number of locations, 50 nm ryanodine (Calbiochem, San Diego, CA, USA) was added to the external solution.
Background: Calcium flux is commonly read through the fluorescence of an indicator in the cells.

Test [5] deals with podocytes. The experiment in a line: LPS-induced podocyte injury in vitro. Format: cell-based, mouse. Particulars: LPS 100 μg/ml for 24 hrs, co-treatment. The protocol:
(§2) The ability of KCa3.1 inhibitors to protect from podocyte injury induced by lipopolysaccharide (LPS) was tested in vitro and in vivo. […] The protective effect was tested in vivo by administering LPS to 8-week old C57BL/6J mice at 0 hr and 24 hrs.
Differentiated podocytes were exposed to different doses of LPS (50-100 μg/ml) for 24 hours. Changes in the organization of the actin cytoskeleton were assessed by phalloidin staining and paxillin staining as described previously. Each set of experiments was repeated at least three times. Briefly, cells were fixed with 4% PFA, 4% sucrose in PBS at room temperature for 15 minutes and then permeabilized with 0.3% Triton X-100 in PBS with washes in between. Coverslips were washed 3× with PBS and incubated blocking solution (2% FCS, 2% BSA, 0.2% fish gelatin) for 30 minutes at room temperature before further incubation with one of the primary antibodies for 1 hour at room temperature. For double labeling, sections were washed three times with PBS for 5 minutes, and the second primary antibody was applied for 60 minutes. Antigen-antibody complexes were visualized with secondary antibodies 1:500 (Life Technologies) conjugated with fluorochrome (Alexa 488, Alexa 594, or Alexa 647) for 1 hour at room temperature. For stress fibers, phalloidin-rhodamine was used. For the nuclei, we used DAPI. Confocal microscopy with Leica DMI was done.

Test [6] has as its system C57BL/6J mice. The experiment in a line: LPS-induced glomerular disease in mice. Format: in vivo, mouse. As to conditions: for albuminuria: 48 hours after LPS injection, compound given at 12 hr and 24 hr. As for the experimental part: as §2
Albuminuria was qualitatively screened using a 10% SDS-PAGE gel followed by Coomassie-blue staining. BSA standards of 0.1, 0.5, 5 μg were used and 5 μl urine was used from each sample to quantify urine albumin in duplicate using commercial kits, according to the manufacturer's protocol (mouse albumin ELISA, Bethyl Laboratories).

Where [7] appears, read: expected K+ equilibrium (VK) calculated at -83 mV.

“Also recorded” adds a separate entry of the source.

Regarding `Brc1ccccc1-c1nc2ccccc2[nH]1` [BT563, 2-(2-bromophenyl)-1H-benzo[d]imidazole], in test [1], the “rescue from focal adhesion loss and F-actin reorganization” value is “most consistently rescued”. Besides, the KCa3.1 conductance entry in test [2] and in test [3] was “decreased KCa3.1 conductance” throughout. Also, in test [2] (setting [7]), the “crossover potential of before and after I-V plots” value is “closer to the expected K+ equilibrium (VK)”. The stimuli to peak result in test [4] (YAP knockdown cells, 5uM and 10 uM) was “significantly decreased”. In addition, the CaD50 result in test [4] is given as “decreased”. For the same molecule, the “time to peak of calcium uptake” value in test [4] is on record as “decreased”. Moreover, the “LPS-induced actin cytoskeletal reorganization and loss of focal adhesions” value in test [5] is “abrogated”. Besides, the albuminuria entry in test [6] is listed as “statistically significant decrease; also recorded: decreased albuminuria”. Also, the “foot process injury (scanning EM)” value in test [6] (LPS treated mice) is “not seen; also recorded: rescue of LPS-induced podocyte foot process disruption”.
As for `Cc1ccn2cc(-c3ccccc3)nc2c1` [BT564, 7-methyl-2-phenylimidazo[1,2-α]pyridine], the “rescue from focal adhesion loss and F-actin reorganization” value in test [1] is “most consistently rescued”. Also, in test [2], the KCa3.1 conductance entry is on record as “decreased KCa3.1 conductance”. The KCa3.1 conductance entry in test [3] is reported as “decreased KCa3.1 conductance”. Moreover, in test [4], the CaD50 result was “decreased” and the “time to peak of calcium uptake” value is “decreased”. In addition, the “LPS-induced actin cytoskeletal reorganization and loss of focal adhesions” value in test [5] is “abrogated”. Further, in test [6], the albuminuria result is given as “not”.
On to `Cc1cc2nc(N)oc2c2ccccc12` [SKA121, reference compound], for which the KCa3.1 conductance entry in test [2] and in test [3] was “enhanced” each time.
For the molecule `Clc1ccccc1C(c1ccccc1)(c1ccccc1)n1cccn1` [TRAM-34, reference compound], the KCa3.1 conductance result in test [2] was “decreased”. Also, in test [3], the KCa3.1 conductance entry is reported as “decreased”. Moreover, the “crossover potential of before and after I-V plots” value in test [3] (setting [7]) is “did cross at the expected K+ equilibrium”. Further, in test [4], the CaD50 entry was “decreased” and the “time to peak of calcium uptake” value was “decreased”.

The record behind these values is patent US20240391880A1, “KCa3.1 INHIBITORS FOR PODOCYTE PROTECTION” (Icahn School of Medicine at Mount Sinai, priority 2021, published 2024).
